Laboratory results as given in US9499493B2, “2,4-pyrimidinediamine compounds and their uses” (Rigel Pharmaceuticals, Inc., priority 2002, dated 2016).

Tests used:
[1] = test system: cultured human mast cells (CHMC); test: CHMC low cell density ionomycin activation: tryptase assay; assay type: cell-based
[2] = test system: cultured human mast cells (CHMC); test: CHMC low cell density IgE activation: tryptase assay; assay type: cell-based; conditions: anti-IgE
Outline: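 Cultured human mast cells (1000-1500 cells/well, donor-dependent) equilibrated 1 hr at 37° C, then stimulated with anti-IgE for 30 min at 37° C. Tryptase released into the supernatant is measured with a fluorogenic tryptase substrate after 30 min at room temperature.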

Compound | IC50 [1] | IC50 [2]
CCOC(=O)C(C)(C)c1ccc(Nc2nc(Nc3ccc4c(c3)OCCO4)ncc2F)cc1 [R935148, N2-(3,4-Ethylenedioxyphenyl)-N4-[4-[(1-ethoxycarbonyl-1-methyl)ethyl]phenyl]-5-fluoro-2,4-pyrimidinediamine] | 9420 nM | 2220 nM
CCOC(=O)C(C)(C)c1ccc(Nc2ncc(F)c(Nc3ccc(OC(C)C)cc3)n2)cc1 [R935150, N2-[4-[(1-Ethoxycarbonyl-1-methyl)ethyl]phenyl]-5-fluoro-N4-(4-isopropoxyphenyl)-2,4-pyrimidinediamine] | 9740 nM | 1930 nM
CCOC(=O)C(C)(C)c1ccc(Nc2ncc(F)c(Nc3cccc(O)c3)n2)cc1 [R935152, N2-[4-[(1-Ethoxycarbonyl-1-methyl)ethyl]phenyl]-5-fluoro-N4-(3-hydroxyphenyl)-2,4-pyrimidinediamine] | 9320 nM | 505 nM
CCOC(=O)C(C)(C)c1ccc(Nc2nc(Nc3ccc(OCC(=O)OC)cc3)ncc2F)cc1 [R935157, N4-[4-[(1-Ethoxycarbonyl-1-methyl)ethyl]phenyl]-5-fluoro-N2-(4-methoxycarbonylmethyleneoxyphenyl)-2,4-pyrimidinediamine] | 4660 nM | 256 nM
COC(=O)COc1ccc(Nc2ncc(F)c(Nc3ccc(OC(C)C)cc3)n2)cc1 [R935159, 5-Fluoro-N4-(4-isopropoxyphenyl)-N2-(4-methoxycarbonylmethyleneoxyphenyl)-2,4-pyrimidinediamine] | 4140 nM | 232 nM
Fc1cnc(Nc2ccc3c(c2)OCCCO3)nc1Nc1ccc2c(c1)OCCCO2 [R935162, N2,N4-Bis(3,4-propylenedioxyphenyl)-5-fluoro-2,4-pyrimidinediamine] | > 10000 nM | 269 nM
Fc1ccc(Nc2ccnc(Nc3ccc(F)c(Cl)c3)n2)cc1Cl [R935163, N2,N4-Bis(3-chloro-4-fluoropheny)-2,4-pyrimidinediamine] | > 10000 nM | > 10000 nM
COC(=O)c1cc(Nc2ncc(F)c(Nc3ccc(OC(C)C)cc3)n2)cn1C [R935164, 5-Fluoro-N4-(4-isopropoxyphenyl)-N2-[(N-methyl-2-methoxycarbonyl)pyrrol-4-yl]-2,4-pyrimidinediamine] | > 10000 nM | 204 nM
COC(=O)c1cc(Nc2nc(Nc3ccc4c(c3)OCCO4)ncc2F)cn1C [R935166, N2-(3,4-Ethylenedioxyphenyl)-5-fluoro-N4-[(N-methyl-2-methoxycarbonyl)pyrrol-4-yl]-2,4-pyrimidinediamine] | > 10000 nM | 568 nM
CCOC(=O)C(C)(C)c1ccc(Nc2nc(Nc3ccc(OC(C)C)cc3)ncc2F)cc1 [R935167, N4-[4-[(1-Ethoxycarbonyl-1-methyl)ethyl]phenyl]-5-fluoro-N2-(4-isopropoxyphenyl)-2,4-pyrimidinediamine] | > 10000 nM | 2130 nM
CCOC(=O)C(C)(C)c1ccc(Nc2nc(Nc3cccc(O)c3)ncc2F)cc1 [R935169, N4-[4-[(1-Ethoxycarbonyl-1-methyl)ethyl]phenyl]-5-fluoro-N2-(3-hydroxyphenyl)-2,4-pyrimidinediamine] | 8010 nM | 999 nM
CC(C)(CO)c1ccc(Nc2ncc(F)c(Nc3cccc(O)c3)n2)cc1 [R935171, 5-Fluoro-N2-[4-(2-hydroxy-1,1-dimethylethyl)phenyl]-N4-(3-hydroxyphenyl)-2,4-pyrimidinediamine] | > 10000 nM | 536 nM
CCOC(=O)C(C)(C)c1ccc(Nc2nc(Nc3ccc4c(c3)OCCO4)ncc2F)cc1 [R935172] | 6810 nM | 1380 nM
CC(C)(CO)c1ccc(Nc2nc(Nc3ccc4c(c3)OCCO4)ncc2F)cc1 [R935173, N2-(3,4-Ethylenedioxyphenyl)-5-fluoro-N4-[4-(2-hydroxy-1,1-dimethylethyl)phenyl]-2,4-pyrimidinediamine] | > 10000 nM | 454 nM
CC(C)(CO)c1ccc(Nc2ncc(F)c(Nc3ccc4oc(CO)cc4c3)n2)cc1 [R935177, 5-Fluoro-N2-[4-(2-hydroxy-1,1,dimethylethyl)phenyl]-N4-(2-hydroxymethylbenzofur-5-yl)-2,4-pyrimidinediamine] | > 10000 nM | 889 nM
OCC(O)COc1ccc(Nc2ncc(F)c(Nc3ccc4c(c3)OCCO4)n2)cc1 (stereo not drawn) [R935179, N2-[4-(2,3-Dihydroxypropoxy)phenyl]-N4-(3,4-ethylenedioxypheny)-5-fluoro-2,4-pyrimidinediamine] | > 10000 nM | 557 nM
COC(=O)COc1ccc(Nc2ncc(F)c(Nc3ccc4c(c3)OCCCO4)n2)cc1 [R935182, 5-Fluoro-N2-[4-(methoxycarbonylmethyleneoxy)phenyl]-N4-(3,4-propylenedioxyphenyl)-2,4-pyrimidinediamine] | 2470 nM | 124 nM
OCCOc1ccc(Nc2ncc(F)c(Nc3ccc4c(c3)OCCCO4)n2)cc1 [R935183, 5-Fluoro-N2-[4-(2-hydroxyethoxy)phenyl]-N4-(3,4-propylenedioxyphenyl)-2,4-pyrimidinediamine] | > 10000 nM | 729 nM

Compound | IC50 [1] | IC50 [2]
CNC(=O)COc1ccc(Nc2ncc(F)c(Nc3ccc4c(c3)OCCCO4)n2)cc1 [R935184, 5-Fluoro-N2-[4-(N-methylamino)carbonylmethyleneoxyphenyl]-N4-(3,4-propylenedioxyphenyl)-2,4-pyrimidinediamine] | > 10000 nM | 605 nM
COC(=O)COc1cccc(Nc2ncc(F)c(Nc3ccc4c(c3)OCCCO4)n2)c1 [R935185, 5-Fluoro-N2-[3-(methoxycarbonylmethyleneoxy)phenyl]-N4-(3,4-propylenedioxyphenyl)-2,4-pyrimidinediamine] | 6640 nM | 351 nM
OCCOc1ccc(Nc2ncc(F)c(Nc3ccc4c(c3)OCCCO4)n2)cc1 [R935186, 5-Fluoro-N2-[4-(2-hydroxyethoxy)phenyl]-N4-(3,4-propylenedioxyphenyl)-2,4-pyrimidinediamine] | > 10000 nM | 211 nM
CCOC(=O)C(C)(Oc1cccc(Nc2nc(Nc3ccc(OC(C)C)cc3)ncc2F)c1)C(=O)OCC [R935187, N4-[3-(1-Bis(ethoxycarbonyl)ethoxy)phenyl]-5-fluoro-N2-[4-isopropoxyphenyl)-2,4-pyrimidinediamine] | > 10000 nM | 9060 nM
Fc1cnc(Nc2ccc3cn[nH]c3c2)nc1Nc1ccc2cn[nH]c2c1 [R935188, N2,N4-Bis(indazolin-6-yl)-5-fluoro-2,4-pyrimidinediamine] | > 10000 nM | 239 nM
Fc1cnc(Nc2ccc3[nH]ncc3c2)nc1Nc1ccc2[nH]ncc2c1 [R935189, N2,N4-Bis(indazolin-5-yl)-5-fluoro-2,4-pyrimidinediamine] | > 10000 nM | 619 nM
Fc1cnc(Nc2ccc3cn[nH]c3c2)nc1Nc1ccc2c(c1)OCCO2 [R935190, N4-(3,4-Ethylenedioxyphenyl)-5-fluoro-N2-(indazolin-6-yl)-2,4-pyrimidinediamine] | > 10000 nM | 156 nM
Cn1ncc2cc(Nc3ncc(F)c(Nc4ccc5c(cnn5C)c4)n3)ccc21 [R935192, N2,N4-Bis(1-methyl-indazolin-5-yl)-5-fluoro-2,4-pyrimidinediamine] | > 10000 nM | 337 nM
CC(C)Oc1ccc(Nc2nc(Nc3ccc4[nH]ncc4c3)ncc2F)cc1 [R935197, 5-Fluoro-N2-(indazoline-5-yl)-N4-(4-isopropoxyphenyl)-2,4-pyrimidinediamine] | > 10000 nM | 174 nM
Fc1cnc(Nc2ccc3[nH]ncc3c2)nc1Nc1ccc2c(c1)OCCO2 [R935198, N4-(3,4-Ethylenedioxyphenyl)-5-fluoro-N2-(indazoline-5-yl)-2,4-pyrimidinediamine] | > 10000 nM | 126 nM
CNC(=O)COc1cccc(Nc2ncc(F)c(Nc3ccc4c(c3)OCCCO4)n2)c1 [R935202, 5-Fluoro-N2-[3-(N-methylamino)carbonylmethyleneoxyphenyl]-N4-(3,4-propylenedioxyphenyl)-2,4-pyrimidinediamine] | 9760 nM | 181 nM
CC(C)Oc1ccc(Nc2ncc(F)c(Nc3ccc4c(cnn4C)c3)n2)cc1 [R935203, 5-Fluoro-N2-(4-isopropoxyphenyl)-N4-(1-methyl-indazoline-5-yl)-2,4-pyrimidinediamine] | > 10000 nM | 562 nM
Cn1ncc2cc(Nc3nc(Nc4cccc(O)c4)ncc3F)ccc21 [R935204, 5-Fluoro-N2-(3-hydroxyphenyl)-N4-(1-methyl-indazoline-5-yl)-2,4-pyrimidinediamine] | > 10000 nM | 554 nM
COC(=O)Cn1ncc2ccc(Nc3ncc(F)c(Nc4ccc5cnn(CC(=O)OC)c5c4)n3)cc21 [R935205, N2,N4-Bis[1-(methoxycarbonyl)methyl-indazoline-6-yl]-5-fluoro-2,4-pyrimidinediamine] | > 10000 nM | 2960 nM
CNC(=O)Cn1ncc2ccc(Nc3ncc(F)c(Nc4ccc5cnn(CC(=O)NC)c5c4)n3)cc21 [R935206, N2,N4-Bis[1-(N-methylaminocarbonyl)methyl-indazoline-6-yl]-5-fluoro-2,4-pyrimidinediamine] | > 10000 nM | 4710 nM
COC(=O)c1cc(COc2cccc(Nc3ncc(F)c(Nc4ccc5c(c4)OCCO5)n3)c2)co1 [R935207, N4-(3,4-ethylenedioxyphenyl)-5-fluoro-N2-[3-(2-methoxycarbonyl-fur-4-yl)methyleneoxyphenyl]-2,4-pyrimidinediamine] | > 10000 nM | > 10000 nM
COC(=O)Cn1ncc2ccc(Nc3ncc(F)c(Nc4ccc5c(c4)OCCO5)n3)cc21 [R935208, N4-(3,4-ethylenedioxyphenyl)-5-fluoro-N2-[1-(methoxycarbonyl)methyl-indazoline-6-yl]-2,4-pyrimidinediamine] | > 10000 nM | 1270 nM
COC(=O)COc1ccc(Nc2ncc(F)c(Nc3ccc4c(cnn4C)c3)n2)cc1 [R935209, 5-Fluoro-N2-[4-(methoxycarbonylmethyleneoxy)phenyl]-N4-(1-methyl-indazoline-5-yl)-2,4-pyrimidinediamine] | 1040 nM | 526 nM
